The text below walks through data of ChEMBL document CHEMBL1201862, “PubChem BioAssay data set” (2004).

Activity calls are given as the source filed them.

Test [1] deals with Glucose-6-phosphate 1-dehydrogenase (Homo sapiens, UniProt P11413). The test can be described thus: inhibition of Homo sapiens G6PD, dose series – biochemical, fluorescence, selectivity assay for P. falciparum G6PD inhibitor project, dose response (AID 504792). The class given is functional.
The test system of another test is INS1. The test can be described thus: INS-1E survival protection against cytokine death – cell-based, luminescence, retest, dose response (AID 449756).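 Also: cell death triggered by IL-1 beta plus TNF-alpha plus IFN-gamma mixture; protective hits raise ATP signal compared with cytokine alone wells.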 As to conditions: Rattus norvegicus. The format is functional.
A further test deals with HEK293. Nature of the test: EBV LMP1 TES2 canonical NF-kB signalling blockers – cell-based, HEK293, luciferase, cherry-pick, dose response (AID 588343). The class given is functional. The note with it: Homo sapiens.
Test [2] in a line: A Cell Based Secondary Assay To Explore Cytotoxicity of Compounds that Sensitize Mycobacterium Tuberculosis to Beta-Lactam Antibiotics. The format is functional.
The nature of test [3]: HEK-293T viability loss after treatment – luminescence, T-cell screen hits, cytotoxicity control for TCR NF-kB inhibitor project, dose response (AID 489026).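 Also: cells exposed to compound about 14 hours before the viability readout.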 The class given is functional, cell-based.
Test [4] concerns the target G-protein coupled receptor 55 (Homo sapiens, UniProt Q9Y2T6). Nature of the test: inhibition of LPI-stimulated GPR55 beta-arrestin translocation – imaging, U2OS, beta-arrestin-GFP, LPI agonist, primary screen (AID 2013).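 Also: antagonist potency measured as reduced agonist-driven arrestin aggregation.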 The class given is functional.
The target in test [5] is T1, Heat shock factor protein 1 (Mus musculus, UniProt P38532).
T1 sequence (P38532 whole entry): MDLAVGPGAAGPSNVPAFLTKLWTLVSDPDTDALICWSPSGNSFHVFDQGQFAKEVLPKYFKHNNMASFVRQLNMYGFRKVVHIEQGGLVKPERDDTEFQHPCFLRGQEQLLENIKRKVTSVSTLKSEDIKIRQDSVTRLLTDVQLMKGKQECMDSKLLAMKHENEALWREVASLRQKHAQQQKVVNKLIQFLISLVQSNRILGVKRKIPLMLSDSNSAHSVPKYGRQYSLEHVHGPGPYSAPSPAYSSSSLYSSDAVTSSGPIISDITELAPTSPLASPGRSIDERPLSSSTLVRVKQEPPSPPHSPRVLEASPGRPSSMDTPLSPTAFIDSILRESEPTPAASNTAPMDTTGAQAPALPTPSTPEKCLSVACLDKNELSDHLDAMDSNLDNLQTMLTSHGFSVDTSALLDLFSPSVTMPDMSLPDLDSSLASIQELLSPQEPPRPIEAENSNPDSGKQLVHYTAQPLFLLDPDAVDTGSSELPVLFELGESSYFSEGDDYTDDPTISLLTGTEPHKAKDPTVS
The test can be described thus: enhancement of HSF1-driven luciferase signal – cell-based, NIH3T3, luminescence, dose retest, confirmation (AID 435004).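 Also: stress induced by proteasome inhibitor MG132 added 30 min after compound; luciferase reporter driven by HSF1 response element in NIH3T3 cells; actives raise luminescence as potentiators of the MG132 stress response.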 The class given is functional.

Test [6] addresses T2, Carboxy-terminal domain RNA polymerase II polypeptide A small phosphatase 1 (Homo sapiens, UniProt Q9GZU7).
T2 sequence (Q9GZU7 whole entry): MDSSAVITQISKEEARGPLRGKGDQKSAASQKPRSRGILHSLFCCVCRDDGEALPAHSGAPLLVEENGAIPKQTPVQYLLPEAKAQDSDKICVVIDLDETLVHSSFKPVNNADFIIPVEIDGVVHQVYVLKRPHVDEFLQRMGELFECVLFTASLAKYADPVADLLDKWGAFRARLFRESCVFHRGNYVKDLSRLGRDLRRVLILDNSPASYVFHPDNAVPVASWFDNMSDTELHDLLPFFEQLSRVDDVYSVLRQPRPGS
Nature of the test: CTDSP1 inhibitors, concentration-response, biochemical, absorbance readout, ultra-high-throughput screen actives (AID 540297). The class given is functional.

In the next test the target is Large T antigen (Simian virus 40, UniProt P03070). The format is functional, Betapolyomavirus macacae.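 Also: Confirmatory-stage PubChem screen for compounds that inhibit SV40 T antigen.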
Sequence of Large T antigen (P03070 whole entry): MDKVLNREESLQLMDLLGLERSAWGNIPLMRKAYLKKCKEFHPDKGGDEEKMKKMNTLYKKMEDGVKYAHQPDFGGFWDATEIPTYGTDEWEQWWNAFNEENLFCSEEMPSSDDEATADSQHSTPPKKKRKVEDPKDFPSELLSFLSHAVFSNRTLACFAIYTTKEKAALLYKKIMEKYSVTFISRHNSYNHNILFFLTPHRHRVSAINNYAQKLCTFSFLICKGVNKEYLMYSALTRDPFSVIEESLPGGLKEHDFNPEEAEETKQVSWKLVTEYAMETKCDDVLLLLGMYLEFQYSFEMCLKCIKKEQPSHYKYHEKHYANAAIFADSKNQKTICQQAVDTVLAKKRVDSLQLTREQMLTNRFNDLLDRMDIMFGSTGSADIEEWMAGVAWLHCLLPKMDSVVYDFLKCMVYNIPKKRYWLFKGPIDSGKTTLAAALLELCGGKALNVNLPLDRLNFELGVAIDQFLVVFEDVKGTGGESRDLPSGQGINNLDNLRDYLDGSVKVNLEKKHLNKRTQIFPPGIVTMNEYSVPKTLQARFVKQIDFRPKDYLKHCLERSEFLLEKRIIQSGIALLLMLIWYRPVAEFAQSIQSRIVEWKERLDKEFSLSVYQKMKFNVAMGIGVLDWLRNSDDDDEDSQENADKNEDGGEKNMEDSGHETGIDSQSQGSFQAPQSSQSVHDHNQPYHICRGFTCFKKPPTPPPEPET

Sequence of G-protein coupled receptor 55 (Q9Y2T6 whole entry): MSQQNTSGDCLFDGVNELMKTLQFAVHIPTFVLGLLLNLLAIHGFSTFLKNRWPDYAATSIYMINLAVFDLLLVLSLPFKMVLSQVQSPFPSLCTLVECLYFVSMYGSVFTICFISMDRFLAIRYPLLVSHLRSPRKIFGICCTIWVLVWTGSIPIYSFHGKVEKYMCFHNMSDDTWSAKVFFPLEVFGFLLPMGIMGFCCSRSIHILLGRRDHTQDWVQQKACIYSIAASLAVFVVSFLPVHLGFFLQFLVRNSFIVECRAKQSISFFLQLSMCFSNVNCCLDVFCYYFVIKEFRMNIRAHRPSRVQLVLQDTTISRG
Sequence of Glucose-6-phosphate 1-dehydrogenase (P11413 whole entry): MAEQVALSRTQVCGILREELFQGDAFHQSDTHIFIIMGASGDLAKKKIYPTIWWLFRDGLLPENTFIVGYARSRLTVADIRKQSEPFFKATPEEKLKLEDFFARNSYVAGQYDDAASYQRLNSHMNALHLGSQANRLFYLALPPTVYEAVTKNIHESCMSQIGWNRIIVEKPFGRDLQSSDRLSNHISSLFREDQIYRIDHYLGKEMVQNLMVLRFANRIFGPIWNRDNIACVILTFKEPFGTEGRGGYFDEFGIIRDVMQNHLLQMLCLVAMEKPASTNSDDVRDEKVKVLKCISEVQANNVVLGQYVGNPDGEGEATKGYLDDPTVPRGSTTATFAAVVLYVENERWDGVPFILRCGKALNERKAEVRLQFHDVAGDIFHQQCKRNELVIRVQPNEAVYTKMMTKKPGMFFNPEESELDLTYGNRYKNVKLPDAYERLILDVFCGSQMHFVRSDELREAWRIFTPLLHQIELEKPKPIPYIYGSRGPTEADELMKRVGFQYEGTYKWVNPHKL

On to `C/C(Cn1nnc([N+](=O)[O-])n1)=N\NC(=O)c1ccccc1O`, for which, in [1], the IC50 was > 80 µM (inactive).

In the case of `O=C(Nc1ccc(Cl)cc1)Nc1nnc(CSCc2ccc(Cl)cc2)s1`, the results for the half-maximal activity concentration (AC50) in the test on INS1 and in the test with HEK293 were 3.99 µM (active) and 3.92 µM (active), respectively.

Consider `NS(=O)(=O)c1ccc(Sc2nc3ccccc3s2)c([N+](=O)[O-])c1`, for which the CC50 in test [2] is 13 µM (active). Besides, the IC50 in test [3] is > 80 µM (inactive).

`O=C(c1ccc(-c2ccc(Cl)cc2)o1)N1CCN(S(=O)(=O)c2cccs2)CC1`: the 50% cytotoxic concentration (CC50) in test [2] is 26 µM (active).

In the case of `N#C/C(=C\c1c[nH]nc1-c1ccccc1Br)C(=O)O`, in test [4], the IC50 is 3.58 µM (active).

Regarding `COc1ccc(C2c3ccc(O)cc3Oc3ncn(Cc4ccco4)c(=N)c32)cc1` (centres undefined), the IC50 in test [4] is 1.41 µM (active). For the same compound, the EC50 in [5] is > 260 µM (inactive).

In the case of `O=C(CSc1nc(-c2ccccc2)c(-c2ccccc2)[nH]1)N1CCN(S(=O)(=O)c2ccccc2)CC1`, the IC50 in [4] was 3.67 µM (active).

Take `C[N+]1(CCCCSc2ccc(O)cc2)CCCCC1`: the 50% inhibitory concentration (IC50) in test [6] was 6.89 µM (active); on Large T antigen, 12.1 µM (active).

Take `COc1cc(NCc2ccccc2)c2ncn(C(C)C)c2c1`: the IC50 in [1] was > 80 µM (inactive).

In the case of `COc1ccc(Cl)cc1NC(=O)NNC(=O)c1ccccn1`, the CC50 in [2] was 28.8 µM (active).

One may read the IC50 as the concentration at which inhibition is half-maximal. As a reminder, the AC50 is the concentration giving half of the maximal activity seen. For orientation: CC50 means the concentration at which the toxic effect on the cells reaches its halfway point. A word on the EC50: it is the midpoint of the concentration-response curve.
